PubChem BioAssay (NCI)
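1) Cells in 96-well plates. 2) Compound, 48 h, 5 concentrations. 3) Linear interpolation between surrounding doses. 4) Unreached endpoint = highest concentration. GI50 marks 50% less growth. The concentration for full growth arrest is given as TGI.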

How the values were obtained:
Experiment in all cases: NCI-60 cell line screen, 48 h
SF-539 CNS = tested on: SF-539 CNS
786-0 renal = tested on: 786-0 renal
SK-MEL-2 melanoma = tested on: SK-MEL-2 melanoma
SK-MEL-28 melanoma = tested on: SK-MEL-28 melanoma
ACHN renal = tested on: ACHN renal
HCC-2998 colon = tested on: HCC-2998 colon
SNB-19 CNS = tested on: SNB-19 CNS
LOX IMVI melanoma = tested on: LOX IMVI melanoma
MOLT-4 leukemia = tested on: MOLT-4 leukemia
HL-60(TB) leukemia = tested on: HL-60(TB) leukemia

Compound	GI50 (SF-539 CNS)	TGI (SF-539 CNS)	GI50 (786-0 renal)	TGI (786-0 renal)	GI50 (SK-MEL-2 melanoma)	TGI (SK-MEL-2 melanoma)	GI50 (SK-MEL-28 melanoma)	TGI (SK-MEL-28 melanoma)	GI50 (ACHN renal)	TGI (ACHN renal)	GI50 (HCC-2998 colon)	TGI (HCC-2998 colon)	GI50 (SNB-19 CNS)	TGI (SNB-19 CNS)	GI50 (LOX IMVI melanoma)	TGI (LOX IMVI melanoma)	GI50 (MOLT-4 leukemia)	TGI (MOLT-4 leukemia)	TGI (HL-60(TB) leukemia)	GI50 (HL-60(TB) leukemia)
Cc1cc2nc(-c3c(F)cccc3Cl)n(Cc3c(F)cccc3Cl)c2cc1C	17.3 µM	34.8 µM	15.8 µM	31.3 µM	50.2 µM	> 100 µM	24.8 µM	55.2 µM	14.5 µM	45.6 µM	11.2 µM	23.7 µM	25.5 µM	93.7 µM	13.5 µM	30.2 µM	30.4 µM	> 100 µM		
COC(=O)C(C(=O)C(N)=O)c1csc(-n2nc(-c3ccccc3)cc2-c2ccccc2)n1 (stereo unspecified)		> 31.6 µM		> 31.6 µM		> 31.6 µM		> 31.6 µM		> 31.6 µM		> 31.6 µM		17.2 µM		> 100 µM		> 31.6 µM	> 31.6 µM	
[CH3][Sn]1([CH3])[O]CC(COc2cc(Cl)c(Cl)cc2Cl)[O]1 (stereo unspecified)	24.7 µM	> 100 µM	> 100 µM	> 100 µM	62 µM	> 100 µM	> 100 µM	> 100 µM	85.5 µM	> 100 µM	62.5 µM	> 100 µM	> 100 µM	> 100 µM	> 100 µM	> 100 µM	> 100 µM	> 100 µM	> 100 µM	> 100000 nM
COc1cc(-c2cc(=O)c3c(O)c(OC)c(OC)c(OC)c3o2)cc(OC)c1OC		> 54.9 µM		15.6 µM		> 100 µM		> 100 µM		> 100 µM		> 100 µM		> 78.7 µM		> 100 µM		> 100 µM	> 100 µM	
C=CC(C)(O)CC/C=C(\CO)C(=O)OC1C(C)OC(O[C@](C)(C=C)CC/C=C(\CO)C(=O)O[C@H]2C[C@@]3(C(=O)OC4OC(CO)C(O)C(O)C4OC4OC(C)C(OC5OC(CO)C(O)C5O)C(OC5OC(CO)C(O)C(O)C5O)C4O)C(CC2(C)C)C2=CCC4[C@@]5(C)CC[C@H](OC6OC(COC7OC(C)C(O)C(O)C7OC7OCC(O)C(O)C7O)C(O)C(O)C6NC(C)=O)C(C)(C)C5CC[C@@]4(C)[C@]2(C)C[C@H]3O)C(O)C1O (stereo partly specified)	4.86 µM	9.77 µM	0.155 µM	0.668 µM	0.229 µM	1.5 µM	0.0852 µM	0.248 µM	0.0771 µM	0.209 µM	0.0688 µM	0.195 µM	0.107 µM	1.12 µM	0.162 µM	0.82 µM	0.886 µM	12.9 µM	2.53 µM	130 nM
N#C/C(=C\c1ccc2[nH]ccc2c1)C(=O)c1ccc(O)c(O)c1		> 100 µM		> 100 µM		> 100 µM		> 100 µM		> 100 µM		> 100 µM		> 100 µM		> 100 µM		> 100 µM	> 95.1 µM	
NNC(=O)C(O)C(O)C(=O)NN (stereo unspecified)				> 100 µM		> 100 µM		> 100 µM		> 100 µM		> 100 µM		> 100 µM		> 100 µM		> 100 µM		
O=C(/C=C/c1ccccc1)CCC1C(=O)NC(=S)NC1=O		> 100 µM		> 100 µM		> 100 µM		> 100 µM		> 100 µM		> 100 µM		> 100 µM		> 100 µM		> 100 µM		
CCOC(=O)c1c(C)n(Cc2ccccc2)c2c1cc1oc(=O)c(=O)n3cnc2c13	14.5 µM	37.8 µM	13.7 µM	> 50 µM	> 50 µM	> 50 µM	40.4 µM	> 50 µM	9.91 µM	39.9 µM			42.4 µM	> 50 µM	8.74 µM	22.3 µM	8.47 µM	> 50 µM	> 50 µM	14500 nM
CC(=O)NC(CCCN(Cc1ccccc1)C(=O)N(C)N=O)C(=O)NCc1ccccc1 (stereo unspecified)		> 100 µM		> 100 µM		> 100 µM		> 100 µM		> 100 µM		> 100 µM		> 100 µM		> 100 µM		> 100 µM		
CC(C(N)=O)N(C)C(=O)c1cnc2ccccc2c1 (stereo unspecified)		> 100 µM		> 100 µM		> 100 µM		> 100 µM		> 100 µM		> 100 µM		> 100 µM				> 100 µM	> 100 µM	
COc1cc2c(cc1OCCCOc1ccc(-c3nc4ccc(N5CCN(C)CC5)cc4[nH]3)cc1)N=C[C@@H]1CCCN1C2=O	< 0.01 µM	< 0.01 µM	< 0.01 µM	0.524 µM	< 0.01 µM	< 0.01 µM	< 0.01 µM	54.5 µM					< 0.01 µM	17.1 µM	< 0.01 µM	1.58 µM	< 0.01 µM	< 0.01 µM	< 0.01 µM	< 10 nM
CC(=O)OC(=O)O/C=C\CCl		> 100 µM		> 100 µM		> 100 µM		> 100 µM		> 100 µM		> 100 µM		> 100 µM				> 100 µM	> 100 µM	
CN=C(N)N/N=C(\C)c1ccc2c(c1)Cc1ccccc1-2	1.66 µM	3.02 µM	1.86 µM	3.74 µM	1.87 µM	3.81 µM	2.22 µM	4.63 µM	1.78 µM	3.61 µM	1.67 µM	3.09 µM	3.46 µM	21.8 µM			0.352 µM	1.49 µM	1.94 µM	399 nM
COC(=O)C(=O)C(C(=O)C(=O)Nc1cc(Cl)c(Cl)cc1Cl)c1nc2ccc([N+](=O)[O-])cc2[nH]c1=O (stereo unspecified)		> 100 µM		> 100 µM		> 100 µM		> 100 µM		> 100 µM		> 100 µM		> 100 µM		> 100 µM		> 100 µM		
CC1=CC(=O)NP(=O)(C23CC4CC(CC(C4)C2)C3)N1 (stereo unspecified)		> 100 µM		> 100 µM		> 100 µM		> 100 µM		> 100 µM				> 100 µM		> 100 µM		> 100 µM	> 100 µM	
CC(N1CCOCC1)C(O)(c1ccccc1)c1ccccn1 (stereo unspecified)		> 100 µM		> 100 µM		> 100 µM		> 100 µM		> 100 µM		38.9 µM		> 100 µM		> 100 µM			> 100 µM	
